The source of these data is publication PMC6364417, “Kinase inhibitor library screening identifies synergistic drug combinations effective in sensitive and resistant melanoma cells” (Journal of Experimental & Clinical Cancer Research : CR, 2019).

Experiment in all cases: Kinase inhibitor library screening, PrestoBlue cell viability, 1 or 10 μM, 72 h
The test system of data set [1] is A375-GP cells (Dabrafenib-resistant). As to conditions: A375 GP, 72 h. Here is the method:
(§1) After 72 h of treatment, cell viability was assessed using the PrestoBlue Cell Viability Reagent (ThermoFisher Scientific). Measurements were performed with the CLARIOstar Monochromator microplate reader (BMG Labtech).
(§2) Kinase inhibitor library screening. […] Each cell line was treated in its sensitive form (parental), and also as 2 resistant derivatives, which were made resistant to either Vemurafenib (XP) or Dabrafenib (GP). Drugs were added at 2 different concentrations, 1 and 10 μM, for 72 h and cell viability was assessed using the PrestoBlue Cell Viability assay. Results are depicted as % viability compared to untreated cells. Each cell line was analyzed at least in duplicate. […] (XLSX 95 kb)

Data set [2] relates to IGR37 cells (parental). To be noted: IGR37 Parental, 72 h, in %. Here is the method:
as §1, §2

In data set [3] the test system is A375 cells (parental). As to conditions: A375 Parental, 72 h. Here is the method:
as §1, §2

For data set [4], the system named is 501Mel-XP cells (Vemurafenib-resistant). As to conditions: 501Mel XP, 72 h, in %. Here is the method:
as §1, §2

The test system of data set [5] is IGR37-GP cells (Dabrafenib-resistant). To be noted: IGR37 GP, 72 h. The protocol:
as §1, §2

The test system of data set [6] is 501Mel-GP cells (Dabrafenib-resistant). To be noted: 501Mel GP, 72 h, in %. Here is the method: as §1, §2
Data set [7] concerns IGR37-XP cells (Vemurafenib-resistant). As to conditions: IGR37 XP, 72 h. The protocol:
as §1, §2

The test system of data set [8] is A375-XP cells (Vemurafenib-resistant). To be noted: A375 XP, 72 h. The protocol:
as §1, §2

Data set [9] relates to 501Mel cells (parental). As to conditions: 501Mel Parental, 72 h, in %. Here is the method: as §1, §2

Turning to `COc1cc2ncnc(Nc3ccc(O)c(Br)c3)c2cc1OC` [WHI-P154], the “cell viability, A375 GP, 1μΜ” value in [1] (1μΜ, in %) came to 96.6. The “cell viability, A375 GP, 10μΜ” value in [1] (10μΜ, in %) is 85.7. Also, the “cell viability, IGR37 Parental, 1μΜ” value in data set [2] (1μΜ) was 97.1. Also, in [2] (10μΜ), the “cell viability, IGR37 Parental, 10μΜ” value came out at 93.0. For the same compound, the “cell viability, A375 Parental, 1μΜ” value in [3] (1μΜ, in %) is recorded as 98.9. For the same compound, in data set [3] (10μΜ, in %), the “cell viability, A375 Parental, 10μΜ” value was determined as 86.7. Also, the “cell viability, 501Mel XP, 1μΜ” value in data set [4] (1μΜ) is given as 89.8. In addition, in data set [4] (10μΜ), the “cell viability, 501Mel XP, 10μΜ” value is 63.6. This compound also showed a cell viability, IGR37 GP, 10μΜ in [5] (10μΜ) of 72.3%. The “cell viability, IGR37 GP, 1μΜ” value in data set [5] (1μΜ, in %) is listed as 94.4. Also, the “cell viability, 501Mel GP, 1μΜ” value in data set [6] (1μΜ) came to 99.5. Moreover, in data set [6] (10μΜ), the “cell viability, 501Mel GP, 10μΜ” value is reported as 77.2. For the same compound, the cell viability, IGR37 XP, 10μΜ in data set [7] (10μΜ) came out at 36.2%. The “cell viability, IGR37 XP, 1μΜ” value in data set [7] (1μΜ, in %) was found to be 91.6. Besides, the “cell viability, A375 XP, 1μΜ” value in data set [8] (1μΜ, in %) is 105.6. Also, in [8] (10μΜ, in %), the “cell viability, A375 XP, 10μΜ” value amounted to 90.7. In [9] (1μΜ), the “cell viability, 501Mel Parental, 1μΜ” value was 97.4. In [9] (10μΜ), the “cell viability, 501Mel Parental, 10μΜ” value came out at 93.8.
In the case of `CCC(=O)N1CCN(c2ccc(-n3c(=O)ccc4cnc5ccc(-c6cnc7ccccc7c6)cc5c43)cc2C(F)(F)F)CC1` [Torin 1], the “Cell viability in kinase inhibitor library screening, A375 GP, 1μΜ” value in data set [1] (1μΜ) is on record as 22.1. The “Cell viability in kinase inhibitor library screening, A375 GP, 10μΜ” value in [1] (10μΜ) turned out to be 6.9. In data set [2] (1μΜ), the “Cell viability in kinase inhibitor library screening, IGR37 Parental, 1μΜ” value amounted to 23.8. For the same compound, the “Cell viability in kinase inhibitor library screening, IGR37 Parental, 10μΜ” value in data set [2] (10μΜ) was 10.7. Further, in data set [3] (10μΜ), the “Cell viability in kinase inhibitor library screening, A375 Parental, 10μΜ” value is reported as 7.2. Besides, in data set [3] (1μΜ), the “Cell viability in kinase inhibitor library screening, A375 Parental, 1μΜ” value worked out at 20.5. In data set [4] (1μΜ), the “Cell viability in kinase inhibitor library screening, 501Mel XP, 1μΜ” value was 14.1. The “Cell viability in kinase inhibitor library screening, 501Mel XP, 10μΜ” value in [4] (10μΜ) is 2.6. Also, the Cell viability in kinase inhibitor library screening, IGR37 GP, 10μΜ in [5] (10μΜ) came to 12.5%. The “Cell viability in kinase inhibitor library screening, IGR37 GP, 1μΜ” value in data set [5] (1μΜ, in %) came out at 40.0. The “Cell viability in kinase inhibitor library screening, 501Mel GP, 1μΜ” value in data set [6] (1μΜ) is listed as 20.9. In data set [6] (10μΜ), the “Cell viability in kinase inhibitor library screening, 501Mel GP, 10μΜ” value is on record as 10.6. Besides, the Cell viability in kinase inhibitor library screening, IGR37 XP, 10μΜ in data set [7] (10μΜ) came to 5.2%. Also, the “Cell viability in kinase inhibitor library screening, IGR37 XP, 1μΜ” value in data set [7] (1μΜ, in %) was determined as 30.3. Besides, the “Cell viability in kinase inhibitor library screening, A375 XP, 1μΜ” value in data set [8] (1μΜ) was 20.4. In data set [8] (10μΜ), the “Cell viability in kinase inhibitor library screening, A375 XP, 10μΜ” value turned out to be 13.4. Moreover, the “Cell viability in kinase inhibitor library screening, 501Mel Parental, 1μΜ” value in data set [9] (1μΜ) worked out at 15.1. Besides, the “Cell viability in kinase inhibitor library screening, 501Mel Parental, 10μΜ” value in [9] (10μΜ) turned out to be 3.3.
With `O=C1NC(=O)/C(=C/c2ccc3nccc(-c4ccncc4)c3c2)S1` [GSK1059615], the “Cell viability in kinase inhibitor library screening, A375 GP, 1μΜ” value in data set [1] (1μΜ) is 59.6. Besides, in data set [1] (10μΜ), the “Cell viability in kinase inhibitor library screening, A375 GP, 10μΜ” value is given as 4.2. In addition, in [2] (1μΜ), the “Cell viability in kinase inhibitor library screening, IGR37 Parental, 1μΜ” value is 82.5. Moreover, in data set [2] (10μΜ), the “Cell viability in kinase inhibitor library screening, IGR37 Parental, 10μΜ” value stood at 4.7. Further, the “Cell viability in kinase inhibitor library screening, A375 Parental, 10μΜ” value in data set [3] (10μΜ) was found to be 4.4. Moreover, the “Cell viability in kinase inhibitor library screening, A375 Parental, 1μΜ” value in data set [3] (1μΜ) is given as 62.0. In addition, the “Cell viability in kinase inhibitor library screening, 501Mel XP, 1μΜ” value in [4] (1μΜ) amounted to 43.3. Besides, the “Cell viability in kinase inhibitor library screening, 501Mel XP, 10μΜ” value in data set [4] (10μΜ) is given as 0.262. In data set [5] (10μΜ), this compound displayed a Cell viability in kinase inhibitor library screening, IGR37 GP, 10μΜ of 6.4%. Besides, the “Cell viability in kinase inhibitor library screening, IGR37 GP, 1μΜ” value in data set [5] (1μΜ, in %) turned out to be 75.2. The “Cell viability in kinase inhibitor library screening, 501Mel GP, 1μΜ” value in data set [6] (1μΜ) worked out at 45.2. The “Cell viability in kinase inhibitor library screening, 501Mel GP, 10μΜ” value in data set [6] (10μΜ) is 1.5. The same compound registered a Cell viability in kinase inhibitor library screening, IGR37 XP, 10μΜ in [7] (10μΜ) of 2.2%. The “Cell viability in kinase inhibitor library screening, IGR37 XP, 1μΜ” value in data set [7] (1μΜ, in %) is 58.7. Further, the “Cell viability in kinase inhibitor library screening, A375 XP, 1μΜ” value in [8] (1μΜ) is recorded as 54.8. In [8] (10μΜ), the “Cell viability in kinase inhibitor library screening, A375 XP, 10μΜ” value was 3.7. The “Cell viability in kinase inhibitor library screening, 501Mel Parental, 1μΜ” value in data set [9] (1μΜ) is listed as 65.3. Also, the “Cell viability in kinase inhibitor library screening, 501Mel Parental, 10μΜ” value in [9] (10μΜ) is 1.4.
